# Laboratory results reported in patent US9365576B2, “Pyrrolopyrrolidinone compounds” (Novartis AG, priority 2012, dated 2016).
# Target: human MDM2 protein (amino acids 2-188) (Homo sapiens (Human), UniProt Q00987)
# Experiment: TR-FRET assay, p53-MDM2 Assay 2 (modified)
# Type: binding
# Conditions: TR-FRET; 0.1 nM MDM2, 0.1 nM Europium labeled streptavidin, Tecan genios Pro reader; read-out: IC50 p53-MDM2 Assay 2
# Experimental: The inhibition of p53-MDM2 and p53-MDM4 interactions is measured by time resolved fluorescence energy transfer (TR-FRET). Fluorescence energy transfer (or Foerster resonance energy transfer) describes an energy transfer between donor and acceptor fluorescent molecules. For this assay, human MDM2 protein (amino acids 2-188) and human MDM4 protein (amino acids 2-185), tagged with a C-terminal biotin moiety, are used in combination with a Europium labeled streptavidin (Perkin Elmer, Inc., Waltham, Mass., USA) serving as the donor fluorophore. The p53 derived, Cy5 labeled peptide Cy5-[…] (p53 aa18-26) is the energy acceptor. Upon excitation of the donor molecule at 340 nm, binding interaction between MDM2 or MDM4 and the p53 peptide induces energy transfer and enhanced response at the acceptor emission wavelength at 665 nm. […] The ratiometric FRET assay readout is calculated from the raw data of the two distinct fluorescence signals measured in time resolved mode (fluorescence 665 nm/fluorescence 620 nm×1000).
# After addition of 1.25 nM MDM2-biotinylated or 2.5 nM MDM4-biotinylated (internal preparations), and 0.625 nM Europium labeled streptavidin (Perkin Elmer), the solution is pre-incubated for 15 minutes at room temperature, then 10 nM Cy5-p53 peptide (internal preparation) is added before an incubation at room temperature for 15 minutes prior to reading the plate. For measurement of samples, a Victor II microplate reader (Perkin Elmer) is used with the following settings: Excitation 340 nm, Emission Donor 620 nm and Emission Acceptor 665 nm. IC50 values are calculated by curve fitting using XLfit. If not specified, reagents are purchased from Sigma-Aldrich Chemie GmBH, Buchs, Switzerland.
# human MDM2 protein (amino acids 2-188), sequence (Q00987 2-188): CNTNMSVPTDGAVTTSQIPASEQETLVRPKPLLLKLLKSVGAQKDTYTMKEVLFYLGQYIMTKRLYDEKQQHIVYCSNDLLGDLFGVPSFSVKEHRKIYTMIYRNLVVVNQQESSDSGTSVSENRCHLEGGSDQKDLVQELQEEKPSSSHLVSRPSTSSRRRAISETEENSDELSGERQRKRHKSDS
row,Compound,IC50 [nM]
1,"CNC(=O)c1ccc(OC)c(-c2cc3c(n2C(C)C)[C@H](c2ccc(Cl)cc2)N(c2cc(Cl)ccc2C)C3=O)c1 [Example 18, 3-[(S)-5-(5-Chloro-2-methyl-phenyl)-6-(4-chloro-phenyl)-1-isopropyl-4-oxo-1,4,5,6-tetrahydro-pyrrolo[3,4-b]pyrrol-2-yl]-4-methoxy-N-methyl-benzamide]",0.095
2,"CNC(=O)c1ccc(OC)c(-c2cc3c(n2C(C)C)[C@@H](c2ccc(Cl)cc2)N(c2cc(Cl)ccc2C)C3=O)c1 [Example 19, 3-[(R)-5-(5-Chloro-2-methyl-phenyl)-6-(4-chloro-phenyl)-1-isopropyl-4-oxo-1,4,5,6-tetrahydro-pyrrolo[3,4-b]pyrrol-2-yl]-4-methoxy-N-methyl-benzamide]",181
3,"COc1ccc(C(=O)N(C)C)cc1-c1cc2c(n1C(C)C)[C@H](c1ccc(Cl)cc1)N(c1cc(Cl)ccc1C)C2=O [Example 20, 3-[(S)-5-(5-Chloro-2-methyl-phenyl)-6-(4-chloro-phenyl)-1-isopropyl-4-oxo-1,4,5,6-tetrahydro-pyrrolo[3,4-b]pyrrol-2-yl]-4-methoxy-N,N-dimethyl-benzamide]",0.075
4,"COc1ccc(C(=O)N(C)C)cc1-c1cc2c(n1C(C)C)[C@@H](c1ccc(Cl)cc1)N(c1cc(Cl)ccc1C)C2=O [Example 21, 3-[(R)-5-(5-Chloro-2-methyl-phenyl)-6-(4-chloro-phenyl)-1-isopropyl-4-oxo-1,4,5,6-tetrahydro-pyrrolo[3,4-b]pyrrol-2-yl]-4-methoxy-N,N-dimethyl-benzamide]",621
5,"COc1ccc(-c2cc3c(n2C(C)C)C(c2ccc(Cl)cc2)N(c2cc(Cl)ccc2C)C3=O)c(OC)n1 (stereo not shown) [Example 22, 5-(5-Chloro-2-methyl-phenyl)-6-(4-chloro-phenyl)-2-(2,6-dimethoxy-pyridin-3-yl)-1-isopropyl-5,6-dihydro-1H-pyrrolo[3,4-b]pyrrol-4-one]",0.323
6,"COc1ncc(-c2cc3c(n2C(C)C)[C@H](c2ccc(Cl)cc2)N(c2cc(Cl)ccc2C)C3=O)c(OC)n1 [Example 23, (S)-5-(5-Chloro-2-methyl-phenyl)-6-(4-chloro-phenyl)-2-(2,4-dimethoxy-pyrimidin-5-yl)-1-isopropyl-5,6-dihydro-1H-pyrrolo[3,4-b]pyrrol-4-one]",0.065
7,"COc1ncc(-c2cc3c(n2C(C)C)[C@@H](c2ccc(Cl)cc2)N(c2cc(Cl)ccc2C)C3=O)c(OC)n1 [Example 24, (R)-5-(5-Chloro-2-methyl-phenyl)-6-(4-chloro-phenyl)-2-(2,4-dimethoxy-pyrimidin-5-yl)-1-isopropyl-5,6-dihydro-1H-pyrrolo[3,4-b]pyrrol-4-one]",29.6
8,"COc1nc(N)ncc1-c1cc2c(n1C(C)C)C(c1ccc(Cl)cc1)N(c1cc(Cl)ccc1C)C2=O (stereo not shown) [Example 25, 2-(2-Amino-4-methoxy-pyrimidin-5-yl)-5-(5-chloro-2-methyl-phenyl)-6-(4-chloro-phenyl)-1-isopropyl-5,6-dihydro-1H-pyrrolo[3,4-b]pyrrol-4-one]",0.263
9,"CNc1ncc(-c2cc3c(n2C(C)C)C(c2ccc(Cl)cc2)N(c2cc(Cl)ccc2C)C3=O)c(OC)n1 (stereo not shown) [Example 26, 5-(5-Chloro-2-methyl-phenyl)-6-(4-chloro-phenyl)-1-isopropyl-2-(4-methoxy-2-methylamino-pyrimidin-5-yl)-5,6-dihydro-1H-pyrrolo[3,4-b]pyrrol-4-one]",0.195
10,"COc1nc(N(C)C)ncc1-c1cc2c(n1C(C)C)C(c1ccc(Cl)cc1)N(c1cc(Cl)ccc1C)C2=O (stereo not shown) [Example 27, 5-(5-Chloro-2-methyl-phenyl)-6-(4-chloro-phenyl)-2-(2-dimethylamino-4-methoxy-pyrimidin-5-yl)-1-isopropyl-5,6-dihydro-1H-pyrrolo[3,4-b]pyrrol-4-one]",0.225
11,"COc1ccc(C(=O)N2CCOCC2)cc1-c1cc2c(n1C(C)C)C(c1ccc(Cl)cc1)N(c1cc(Cl)ccc1C)C2=O (stereo not shown) [Example 28, 5-(5-Chloro-2-methyl-phenyl)-6-(4-chloro-phenyl)-1-isopropyl-2-[2-methoxy-5-(morpholine-4-carbonyl)-phenyl]-5,6-dihydro-1H-pyrrolo[3,4-b]pyrrol-4-one]",0.106
12,"Cc1ccc(Cl)cc1N1C(=O)c2cc(-c3ccccc3O)n(C(C)C)c2C1c1ccc(Cl)cc1 (stereo not shown) [Example 29, 5-(5-Chloro-2-methyl-phenyl)-6-(4-chloro-phenyl)-2-(2-hydroxy-phenyl)-1-isopropyl-5,6-dihydro-1H-pyrrolo[3,4-b]pyrrol-4-one]",0.306
13,"COc1ccccc1-c1cc2c(n1C(C)C)C(c1ccc(Cl)cc1C)N(c1cc(Cl)ccc1C)C2=O (stereo not shown) [Example 30, 5-(5-Chloro-2-methyl-phenyl)-6-(4-chloro-2-methyl-phenyl)-1-isopropyl-2-(2-methoxy-phenyl)-5,6-dihydro-1H-pyrrolo[3,4-b]pyrrol-4-one]",0.376
14,"CNC(=O)c1ccc(OC)c(-c2cc3c(n2C(C)C)C(c2ccc(Cl)cc2C)N(c2cc(Cl)ccc2C)C3=O)c1 (stereo not shown) [Example 31, 3-[5-(5-Chloro-2-methyl-phenyl)-6-(4-chloro-2-methyl-phenyl)-1-isopropyl-4-oxo-1,4,5,6-tetrahydro-pyrrolo[3,4-b]pyrrol-2-yl]-4-methoxy-N-methyl-benzamide]",0.184
15,"CNC(=O)c1ccc(OC)c(-c2cc3c(n2C(C)C)[C@@H](c2ccc(Cl)cc2C)N(c2cc(Cl)ccc2C)C3=O)c1 [Example 33, 3-[(R)-5-(5-Chloro-2-methyl-phenyl)-6-(4-chloro-2-methyl-phenyl)-1-isopropyl-4-oxo-1,4,5,6-tetrahydro-pyrrolo[3,4-b]pyrrol-2-yl]-4-methoxy-N-methyl-benzamide]",44.6
16,"COc1ccc(-c2nnn[nH]2)cc1-c1cc2c(n1C(C)C)C(c1ccc(Cl)cc1)N(c1cc(Cl)ccc1C)C2=O (stereo not shown) [Example 34, 5-(5-Chloro-2-methyl-phenyl)-6-(4-chloro-phenyl)-1-isopropyl-2-[2-methoxy-5-(1H-tetrazol-5-yl)-phenyl]-5,6-dihydro-1H-pyrrolo[3,4-b]pyrrol-4-one]",0.188
17,"COc1ccc(C(=O)O)cc1-c1cc2c(n1C(C)C)C(c1ccc(Cl)cc1)N(c1cc(Cl)ccc1C)C2=O (stereo not shown) [Example 35, 3-[5-(5-Chloro-2-methyl-phenyl)-6-(4-chloro-phenyl)-1-isopropyl-4-oxo-1,4,5,6-tetrahydro-pyrrolo[3,4-b]pyrrol-2-yl]-4-methoxy-benzoic acid]",0.169
18,"COc1ccc(C(=O)NCCS(C)(=O)=O)cc1-c1cc2c(n1C(C)C)C(c1ccc(Cl)cc1)N(c1cc(Cl)ccc1C)C2=O (stereo not shown) [Example 36, 3-[5-(5-Chloro-2-methyl-phenyl)-6-(4-chloro-phenyl)-1-isopropyl-4-oxo-1,4,5,6-tetrahydro-pyrrolo[3,4-b]pyrrol-2-yl]-N-(2-methanesulfonyl-ethyl)-4-methoxy-benzamide]",0.115
19,"COc1ccc(-c2cc3c(n2C(C)C)C(c2ccc(Cl)cc2)N(c2cc(Cl)ccc2C)C3=O)c(OC)c1 (stereo not shown) [Example 38, 5-(5-Chloro-2-methyl-phenyl)-6-(4-chloro-phenyl)-2-(2,4-dimethoxy-phenyl)-1-isopropyl-5,6-dihydro-1H-pyrrolo[3,4-b]pyrrol-4-one]",0.444
20,"COc1nc(N)ncc1-c1cc2c(n1C(C)C)C(c1ccc(C#N)cc1)N(c1ccc(F)c(Cl)c1)C2=O (stereo not shown) [Example 39, 4-[2-(2-Amino-4-methoxy-pyrimidin-5-yl)-5-(3-chloro-4-fluoro-phenyl)-1-isopropyl-4-oxo-1,4,5,6-tetrahydro-pyrrolo[3,4-b]pyrrol-6-yl]-benzonitrile]",0.556
21,"COc1ncc(-c2cc3c(n2C(C)C)C(c2ccc(C#N)cc2)N(c2ccc(F)c(Cl)c2)C3=O)c(OC)n1 (stereo not shown) [Example 40, 4-[5-(3-Chloro-4-fluoro-phenyl)-2-(2,4-dimethoxy-pyrimidin-5-yl)-1-isopropyl-4-oxo-1,4,5,6-tetrahydro-pyrrolo[3,4-b]pyrrol-6-yl]-benzonitrile]",0.478
22,"COc1nc(N)ncc1-c1cc2c(n1C(C)C)C(c1ccc(C#N)cc1)N(c1cccc(Cl)c1F)C2=O (stereo not shown) [Example 41, 4-[2-(2-Amino-4-methoxy-pyrimidin-5-yl)-5-(3-chloro-2-fluoro-phenyl)-1-isopropyl-4-oxo-1,4,5,6-tetrahydro-pyrrolo[3,4-b]pyrrol-6-yl]-benzonitrile]",0.349
23,"COc1ncc(-c2cc3c(n2C(C)C)C(c2ccc(C#N)cc2)N(c2cccc(Cl)c2F)C3=O)c(OC)n1 (stereo not shown) [Example 42, 4-[5-(3-Chloro-2-fluoro-phenyl)-2-(2,4-dimethoxy-pyrimidin-5-yl)-1-isopropyl-4-oxo-1,4,5,6-tetrahydro-pyrrolo[3,4-b]pyrrol-6-yl]-benzonitrile]",0.246
24,COc1nc(N)ncc1-c1cc2c(n1C(C)C)C(c1ccc(C#N)cc1)N(c1cc(Cl)ccc1C)C2=O (stereo not shown) [Example 43],0.401
25,"COc1ncc(-c2cc3c(n2C(C)C)C(c2ccc(C#N)cc2)N(c2cc(Cl)ccc2C)C3=O)c(OC)n1 (stereo not shown) [Example 44, 4-[5-(5-Chloro-2-methyl-phenyl)-2-(2,4-dimethoxy-pyrimidin-5-yl)-1-isopropyl-4-oxo-1,4,5,6-tetrahydro-pyrrolo[3,4-b]pyrrol-6-yl]-benzonitrile]",0.167
